Tests used:
Format in all cases: in vivo
C57B1/6J mice [1] = assay: Optical microscopy of testes (histopathological findings)
Protocol: (§1) 2,3,7,8-tetrachlorodibenzo-p-dioxin (TCDD) dissolved in toluene (purity of 95% or more as a result of gas chromatography analysis), manufactured by Chem. Services Inc. in USA, was volatilized with nitrogen to obtain powder. The obtained powder was dissolved in a mixed solvent containing acetone and corn oil with a volume ratio of 1:6. The resulting solution each containing 110, 27.5 and 6.9 μg/kg of TCDD was subcutaneously injected to mice at a volume of 5 ml per body weight. […] The mice were supplied with the feed from 10 days before (pre-administration) to 60 days after administration of TCDD (post-administration).
Upon completion of the experiment for 60 days, the experimental animals were fasted for 24 hours and anesthetized with ether. Then, they were abdominally incised and blood was gathered from abdominal vena cava. They were sacrificed by the release of blood. Liver, kidneys, testes and epididymides were extracted and all the extracted organs were weighed. Only the testes were separately kept and observed under optical and electron microscopes. For biochemical finding test, serum was separated from blood with a centrifuge and the separated serum was analyzed with an automated blood biochemical analyzer, Dimension (Dupont, USA). Blood was put to another blood gathering bottle and then, analyzed with an automated blood cell analyzer, Celldyn (Abbott, USA).
The extracted testes were fixed in 10% neutralized formalin buffer for 24 hours and washed with the flowing water. It was subsequently dehydrated with ethanol and cleared with xylene and then, embedded with paraffin. It was sectioned with microtome (microm is HM 440E) to a thickness of 2-3 μm and then, double stained with hematoxylin and eosin to observe under an optical microscope.

C57B1/6J mice [2] = assay: Effect of UDCA on death (death rate, death time) of mice by a single subcutaneous injection of TCDD
Protocol: (§2) Male C57B1/6J mice of 5 weeks old having the average weight of 18-22 g which had been bred in CRJ (Charles River in Japan) were purchased and used in this example as experimental animals. Those mice were acclimated under the constant breeding condition, i.e. the temperature of 24±1° C., the humidity of 60±10% and the light and darkness cycle of 12 hours, for one week and thereafter, utilized in the experiment.
(§3) The Experimental animals were supplied with Purina powdered feed (purchased from Hae Eun Trade) and supplied with water ad libitum. All the animals were weighed twice a week during experimentation.
as §1
(§4) The results are expressed as Mean±Standard Deviation values. For statistical analysis of the body weight, feed and water uptake, biochemical findings, hematological findings and the weight of organ in an acute toxicity test, verification was performed by one way analysis of variance (ANOVA) in case of equal distribution. In case significance was recognized in ANOVA, the Student's t-test was performed in the levels of p<0.05 and p<0.01.

C57B1/6J mice [3] = assay: Water uptake of mice after a single subcutaneous injection of TCDD; design: unit not given here
Protocol: as §2, §3, §1, §4

[4] = TCDD 6.9 μg/kg + UDCA 0.125 wt %
[5] = TCDD 6.9 μg/kg + UDCA 0.25 wt %
[6] = TCDD 110.0 μg/kg + UDCA 0.125 wt %
[7] = TCDD 110.0 μg/kg + UDCA 0.25 wt %
[8] = TCDD 110.0 μg/kg + UDCA 0.5 wt %

SMILES: C[C@H](CCC(=O)O)[C@H]1CC[C@H]2[C@@H]3[C@@H](O)C[C@@H]4C[C@H](O)CC[C@]4(C)[C@H]3CC[C@]12C [UDCA, 3α, 7β-dihydroxy-5β-cholanoic acid]
- seminiferous tubules, optical microphotograph (C57B1/6J mice [1]; TCDD 27.5 μg/kg + 0.5% by weight of UDCA, FIG. 3): normal seminiferous tubules were observed
- histopathological findings of testes under an optical microscope (C57B1/6J mice [1]; group exposed to UDCA (with TCDD)): seminiferous tubules were found to have the similar shape to that of the solvent control
- Death rate (C57B1/6J mice [2]; [4]): 0%
- No. of dead mice/No. of administered mice (C57B1/6J mice [2]; [4]): 0/10
- Death rate (C57B1/6J mice [2]; [5]): 0%
- No. of dead mice/No. of administered mice (C57B1/6J mice [2]; [5]): 0/10
- Death rate (C57B1/6J mice [2]; TCDD 6.9 μg/kg + UDCA 0.5 wt %): 0%
- No. of dead mice/No. of administered mice (C57B1/6J mice [2]; TCDD 6.9 μg/kg + UDCA 0.5 wt %): 0/10
- No. of dead mice/No. of administered mice (C57B1/6J mice [2]; TCDD 27.5 μg/kg + UDCA 0.125 wt %): 0/10
- No. of dead mice/No. of administered mice (C57B1/6J mice [2]; TCDD 27.5 μg/kg + UDCA 0.25 wt %): 0/10
- No. of dead mice/No. of administered mice (C57B1/6J mice [2]; TCDD 27.5 μg/kg + UDCA 0.5 wt %): 0/10
- Death time (Mean ± SD) (C57B1/6J mice [2]; [6]): 33 ± 4 days
- No. of dead mice/No. of administered mice (C57B1/6J mice [2]; [6]): 10/10
- Death rate (C57B1/6J mice [2]; [7]): 90%
- Death time (Mean ± SD) (C57B1/6J mice [2]; [7]): 34 ± 5 days
- No. of dead mice/No. of administered mice (C57B1/6J mice [2]; [7]): 9/10
- Death rate (C57B1/6J mice [2]; [8]): 40%
- Death time (Mean ± SD) (C57B1/6J mice [2]; [8]): 51 ± 8 days
- No. of dead mice/No. of administered mice (C57B1/6J mice [2]; [8]): 4/10
- water uptake (C57B1/6J mice [3]; TCDD 6.9 μg/kg + UDCA 0.125 wt %, 10 days): 4.54 ± 0.71
- water uptake (C57B1/6J mice [3]; TCDD 6.9 μg/kg + UDCA 0.125 wt %, 20 days): 3.75 ± 0.90
- water uptake (C57B1/6J mice [3]; TCDD 6.9 μg/kg + UDCA 0.125 wt %, 30 days): 4.00 ± 0.00
- water uptake (C57B1/6J mice [3]; TCDD 6.9 μg/kg + UDCA 0.125 wt %, 40 days): 4.00 ± 0.00
- water uptake (C57B1/6J mice [3]; TCDD 6.9 μg/kg + UDCA 0.125 wt %, 50 days): 4.06 ± 1.34
- water uptake (C57B1/6J mice [3]; TCDD 6.9 μg/kg + UDCA 0.125 wt %, 60 days): 4.64 ± 0.51
- water uptake (C57B1/6J mice [3]; TCDD 6.9 μg/kg + UDCA 0.25 wt %, 10 days): 4.27 ± 1.16
- water uptake (C57B1/6J mice [3]; TCDD 6.9 μg/kg + UDCA 0.25 wt %, 20 days): 3.83 ± 1.04
- water uptake (C57B1/6J mice [3]; TCDD 6.9 μg/kg + UDCA 0.25 wt %, 30 days): 4.00 ± 0.00
- water uptake (C57B1/6J mice [3]; TCDD 6.9 μg/kg + UDCA 0.25 wt %, 40 days): 3.60 ± 0.57
- water uptake (C57B1/6J mice [3]; TCDD 6.9 μg/kg + UDCA 0.25 wt %, 50 days): 4.28 ± 1.02
- water uptake (C57B1/6J mice [3]; TCDD 6.9 μg/kg + UDCA 0.25 wt %, 60 days): 4.69 ± 0.43
- water uptake (C57B1/6J mice [3]; TCDD 6.9 μg/kg + UDCA 0.5 wt %, 10 days): 4.12 ± 0.94
- water uptake (C57B1/6J mice [3]; TCDD 6.9 μg/kg + UDCA 0.5 wt %, 20 days): 3.80 ± 0.70
- water uptake (C57B1/6J mice [3]; TCDD 6.9 μg/kg + UDCA 0.5 wt %, 30 days): 4.00 ± 0.63
- water uptake (C57B1/6J mice [3]; TCDD 6.9 μg/kg + UDCA 0.5 wt %, 40 days): 3.78 ± 0.31
- water uptake (C57B1/6J mice [3]; TCDD 6.9 μg/kg + UDCA 0.5 wt %, 50 days): 4.35 ± 1.08
- water uptake (C57B1/6J mice [3]; TCDD 6.9 μg/kg + UDCA 0.5 wt %, 60 days): 5.06 ± 0.70
- water uptake (C57B1/6J mice [3]; TCDD 27.5 μg/kg + UDCA 0.125 wt %, 10 days): 3.67 ± 1.10
- water uptake (C57B1/6J mice [3]; TCDD 27.5 μg/kg + UDCA 0.125 wt %, 20 days): 3.92 ± 1.13
- water uptake (C57B1/6J mice [3]; TCDD 27.5 μg/kg + UDCA 0.125 wt %, 30 days): 4.30 ± 0.42
- water uptake (C57B1/6J mice [3]; TCDD 27.5 μg/kg + UDCA 0.125 wt %, 40 days): 4.20 ± 0.28
- water uptake (C57B1/6J mice [3]; TCDD 27.5 μg/kg + UDCA 0.125 wt %, 50 days): 4.44 ± 0.79
- water uptake (C57B1/6J mice [3]; TCDD 27.5 μg/kg + UDCA 0.125 wt %, 60 days): 4.81 ± 0.26
- water uptake (C57B1/6J mice [3]; TCDD 27.5 μg/kg + UDCA 0.25 wt %, 10 days): 4.04 ± 0.75
- water uptake (C57B1/6J mice [3]; TCDD 27.5 μg/kg + UDCA 0.25 wt %, 20 days): 3.92 ± 0.63
- water uptake (C57B1/6J mice [3]; TCDD 27.5 μg/kg + UDCA 0.25 wt %, 30 days): 4.00 ± 0.00
- water uptake (C57B1/6J mice [3]; TCDD 27.5 μg/kg + UDCA 0.25 wt %, 40 days): 4.00 ± 0.00
- water uptake (C57B1/6J mice [3]; TCDD 27.5 μg/kg + UDCA 0.25 wt %, 50 days): 4.44 ± 0.79
- water uptake (C57B1/6J mice [3]; TCDD 27.5 μg/kg + UDCA 0.25 wt %, 60 days): 4.81 ± 0.26
- water uptake (C57B1/6J mice [3]; TCDD 27.5 μg/kg + UDCA 0.5 wt %, 10 days): 3.91 ± 0.95
- water uptake (C57B1/6J mice [3]; TCDD 27.5 μg/kg + UDCA 0.5 wt %, 20 days): 4.35 ± 0.98
- water uptake (C57B1/6J mice [3]; TCDD 27.5 μg/kg + UDCA 0.5 wt %, 30 days): 4.44 ± 0.00
- water uptake (C57B1/6J mice [3]; TCDD 27.5 μg/kg + UDCA 0.5 wt %, 40 days): 4.44 ± 0.00
- water uptake (C57B1/6J mice [3]; TCDD 27.5 μg/kg + UDCA 0.5 wt %, 50 days): 4.41 ± 1.00
- water uptake (C57B1/6J mice [3]; TCDD 27.5 μg/kg + UDCA 0.5 wt %, 60 days): 4.88 ± 0.33
- water uptake (C57B1/6J mice [3]; TCDD 110.0 μg/kg + UDCA 0.125 wt %, 10 days): 4.03 ± 1.21
- water uptake (C57B1/6J mice [3]; TCDD 110.0 μg/kg + UDCA 0.125 wt %, 20 days): 4.07 ± 0.64
- water uptake (C57B1/6J mice [3]; TCDD 110.0 μg/kg + UDCA 0.125 wt %, 30 days): 3.33 ± 0.94
- water uptake (C57B1/6J mice [3]; TCDD 110.0 μg/kg + UDCA 0.25 wt %, 10 days): 3.79 ± 1.06

Source: patent US20040029965A1, “Formulations for reducing or eliminating toxicity of enviromental hormones containing ursodeoxycholic acid” (priority 2000, published 2004)
